According to ChEMBL document CHEMBL1201862, “PubChem BioAssay data set” (2004):
The source made the active and inactive calls.

Experiments:
HEK293 [1] = assay: cells; type: functional, cell-based; conditions: Homo sapiens
Nonstructural protein 1 = Nonstructural protein 1 (Influenza A virus, UniProt Q194T2); type: functional, Influenza A virus (A/California/07/2009(H1N1))
HEK293 [2] = assay: NOD1 signaling inhibitors, primary screen, cell-based, luminescence, uHTS (AID 1578); type: functional; conditions: Homo sapiens
HEK293 [3] = assay: cells; type: functional, cell-based; conditions: Homo sapiens; remark: listed apart in the source
HEK293 [4] = assay: NOD2 signaling inhibitors in MDP-stimulated cells, cell-based, uHTS, luminescence (AID 2001); type: functional; conditions: Homo sapiens
[5] = biological target: DNA dC->dU-editing enzyme APOBEC-3G (Homo sapiens, UniProt Q9HC16); assay: APOBEC3G deaminase inhibitors, SAR follow-up, biochemical, fluorescence, single-stranded DNA substrate (AID 602136); type: functional; conditions: read-out: IC50_Mean
[6] = biological target: DNA dC->dU-editing enzyme APOBEC-3A (Homo sapiens, UniProt P31941); assay: SAR analysis of small molecule inhibitors of APOBEC3A DNA Deaminase via a fluorescence-based single-stranded DNA deaminase assay.; type: functional; conditions: read-out: IC50_Mean
[7] = cytotoxicity in MIN6 insulinoma cells, dose response, cytotoxicity control, cell-based, mouse insulinoma (AID 2122); type: functional;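 note: confirmatory high-throughput counterscreen run to flag cytotoxic compounds; mouse MIN-6 beta cells carrying an insulin promoter eGFP reporter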
[8] = inhibitors of HIV Env-driven cell fusion, dose response, cherry-pick (AID 652057); type: functional, cell-based
[9] = inhibitors of intracellular T. cruzi replication, confirmation, NIH3T3 host cells, beta-gal luminescence (AID 2044); type: functional, cell-based;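 note: intracellular parasites grown in NIH/3T3 mouse fibroblasts as host cells; luminescent beta-galactosidase reporter signal from transgenic T. cruzi replicating inside host cells; inhibitors lower the luminescence signal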
[10] = cytotoxicity toward NIH3T3 fibroblasts, dose response, counter-screen, cell-based, ATP luminescence, mouse fibroblasts (AID 2010); type: functional;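 note: cells exposed to compound for about 90 hours before reading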
[11] = insulin promoter down-regulators in MIN6 cells, imaging, high-content screening, mouse beta cells (AID 1628); type: functional
[12] = control 3'UTR Renilla luciferase suppression, dose response, counter-screen for Shn3 inhibitor project, cell-based, Clone20-Shn3RL, cherry-picked (AID 624133); type: functional
[13] = HepG2 cell cytotoxicity, dose response, cytotoxicity control for Shn3 inhibitor project, CellTiter-Glo, cherry-picked (AID 624134); type: functional, cell-based
[14] = ZM109 Env clade C HIV-1 fusion inhibitors, dose response, HeLa effector, CEM target cells, luciferase, cherry-pick (AID 652058); type: functional, cell-based
[15] = Shn3 3'UTR reporter inhibitors, dose response, cell-based, Clone20 osteoblasts, firefly luciferase, cherry-picked (AID 624132); type: functional;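 note: firefly luciferase luminescence from reporter carrying the Shn3 3'UTR in osteoblasts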
[16] = off-target signal loss in HeLa-CEM21 co-culture – HeLa F-luc CTL cells, cherry-picked, counter-screen for HIV-1 Env fusion inhibitor project, dose response (AID 652040); type: functional, cell-based;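 note: potency for signal decrease marking cytotoxic or nonspecific inhibition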
[17] = CEM21 lymphoblast cell cytotoxicity, dose response, cytotoxicity control for viral fusion inhibitor project, CellTiter-Glo luminescence, cherry-picked (AID 652042); type: functional, cell-based;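 note: potency for signal decrease meaning cytotoxicity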
[18] = biological target: Delta-type opioid receptor (Homo sapiens, UniProt P41143); assay: Counterscreen for agonists of heterodimerization of the mu 1 (OPRM1) and delta 1 (OPRD1) opioid receptors: Luminescence-based cell-based high throughput dose response assay to identify agonists of OPRD1 homodimerization. [Related pubchem assays (depositor defined):AID504326, AID504355, AID504692, AID504904, AID504905]; type: functional
Mu-type opioid receptor = Mu-type opioid receptor (Homo sapiens, UniProt P35372); assay: Counterscreen for agonists of heterodimerization of the mu 1 (OPRM1) and delta 1 (OPRD1) opioid receptors: Luminescence-based cell-based high throughput dose response assay to identify agonists of OPRM1 homodimerization.; type: functional;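 note: U2OS cells expressing OPRM1 and beta-arrestin as split beta-galactosidase partners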
[19] = biological target: 5-hydroxytryptamine receptor 5A (Homo sapiens, UniProt P47898); assay: Counterscreen for agonists of OPRM1-OPRD1 heterodimerization: luminescence-based cell-based high throughput dose response assay to identify agonists of 5-hydroxytryptamine (serotonin) 5A receptor (HTR5A). [Related pubchem assays (depositor defined):AID504326, AID504355, AID504692, AID504904, AID504905]; type: functional
Chain of 5-hydroxytryptamine receptor 5A (P47898 whole entry): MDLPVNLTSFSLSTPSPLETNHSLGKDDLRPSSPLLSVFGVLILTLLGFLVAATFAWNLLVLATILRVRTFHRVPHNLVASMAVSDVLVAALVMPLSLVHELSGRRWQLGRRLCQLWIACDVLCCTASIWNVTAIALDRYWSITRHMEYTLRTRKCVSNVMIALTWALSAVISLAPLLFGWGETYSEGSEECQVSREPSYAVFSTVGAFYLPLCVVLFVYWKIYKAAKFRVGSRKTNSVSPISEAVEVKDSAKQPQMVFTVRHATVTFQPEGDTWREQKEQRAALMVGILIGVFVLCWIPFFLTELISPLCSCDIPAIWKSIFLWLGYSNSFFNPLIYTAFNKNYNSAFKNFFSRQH

Chain of DNA dC->dU-editing enzyme APOBEC-3G (Q9HC16 whole entry): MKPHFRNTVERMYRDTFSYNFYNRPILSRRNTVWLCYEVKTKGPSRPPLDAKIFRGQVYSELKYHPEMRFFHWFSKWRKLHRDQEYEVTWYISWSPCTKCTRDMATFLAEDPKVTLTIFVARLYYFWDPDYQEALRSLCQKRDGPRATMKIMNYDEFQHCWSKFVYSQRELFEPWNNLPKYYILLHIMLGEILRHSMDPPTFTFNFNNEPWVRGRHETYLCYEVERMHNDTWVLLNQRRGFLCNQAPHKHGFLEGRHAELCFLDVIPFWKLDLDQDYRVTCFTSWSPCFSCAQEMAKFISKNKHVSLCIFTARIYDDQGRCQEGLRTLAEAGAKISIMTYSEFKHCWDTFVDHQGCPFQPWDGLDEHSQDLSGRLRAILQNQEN
Chain of Mu-type opioid receptor (P35372 whole entry): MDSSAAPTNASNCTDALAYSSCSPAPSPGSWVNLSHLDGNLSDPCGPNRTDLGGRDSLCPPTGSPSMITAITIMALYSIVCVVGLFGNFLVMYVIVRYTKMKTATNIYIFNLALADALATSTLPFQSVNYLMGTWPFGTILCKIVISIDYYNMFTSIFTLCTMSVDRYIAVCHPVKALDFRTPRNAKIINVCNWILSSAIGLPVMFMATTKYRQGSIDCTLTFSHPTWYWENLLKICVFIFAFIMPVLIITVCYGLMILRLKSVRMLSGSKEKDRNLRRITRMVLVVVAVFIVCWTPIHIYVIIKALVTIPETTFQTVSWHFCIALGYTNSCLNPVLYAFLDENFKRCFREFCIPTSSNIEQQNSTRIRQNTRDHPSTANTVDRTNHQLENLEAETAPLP
Chain of Delta-type opioid receptor (P41143 whole entry): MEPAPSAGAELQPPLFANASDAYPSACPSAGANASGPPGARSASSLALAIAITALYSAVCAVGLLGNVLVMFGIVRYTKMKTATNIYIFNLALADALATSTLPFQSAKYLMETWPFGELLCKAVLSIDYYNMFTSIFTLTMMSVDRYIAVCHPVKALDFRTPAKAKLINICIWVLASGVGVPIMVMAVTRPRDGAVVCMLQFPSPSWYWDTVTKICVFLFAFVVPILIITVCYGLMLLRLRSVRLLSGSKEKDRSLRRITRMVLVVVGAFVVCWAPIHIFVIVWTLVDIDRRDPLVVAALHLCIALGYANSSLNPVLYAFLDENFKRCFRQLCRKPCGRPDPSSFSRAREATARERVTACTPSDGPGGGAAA
Chain of Nonstructural protein 1 (Q194T2 whole entry): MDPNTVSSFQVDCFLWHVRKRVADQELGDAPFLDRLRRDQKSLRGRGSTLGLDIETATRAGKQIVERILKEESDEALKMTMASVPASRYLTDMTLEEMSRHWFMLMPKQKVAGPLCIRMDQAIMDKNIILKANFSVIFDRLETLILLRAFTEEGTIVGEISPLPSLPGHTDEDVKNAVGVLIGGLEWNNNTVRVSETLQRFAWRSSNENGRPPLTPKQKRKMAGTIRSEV
Chain of DNA dC->dU-editing enzyme APOBEC-3A (P31941 whole entry): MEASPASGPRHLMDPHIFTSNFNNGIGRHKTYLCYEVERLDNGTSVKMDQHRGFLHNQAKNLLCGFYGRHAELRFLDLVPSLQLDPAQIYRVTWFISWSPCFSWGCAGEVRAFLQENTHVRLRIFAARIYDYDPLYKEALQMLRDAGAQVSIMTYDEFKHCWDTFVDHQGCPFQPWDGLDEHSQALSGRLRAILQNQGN

CN1C=C/C(=C/c2ccc3ccccc3[n+]2C)c2ccccc21
IC50 (HEK293 [1]): 8.56 µM (active)
IC50 (Nonstructural protein 1): 16.4 µM (active)
EC50 (HEK293 [2]): 5.15 µM (active)
IC50 (HEK293 [3]): 18 µM (active)
IC50 (HEK293 [4]): 7.8 µM (active)

O=C(CSc1nnc2scc(-c3ccccc3)n12)Nc1cccc(C(F)(F)F)c1
IC50 [5]: > 99 µM (inactive)
IC50 [6]: > 99 µM (inactive)

COc1ccc(Nc2cc(C)nc(NCc3ccccc3)n2)cc1
IC50 [7]: 0.699 µM (active)
AC50 [8]: 8.45 µM (active)
EC50 [9]: 0.12 µM (active)
EC50 [10]: > 60 µM (not active)
IC50 [11]: 1.14 µM (active)
AC50 [12]: 0.565 µM (active)
AC50 [13]: 22 µM (active)
AC50 [14]: 3.16 µM (active)
AC50 [15]: 3.9 µM (active)
AC50 [16]: 21.2 µM (active)
AC50 [17]: 26.7 µM (active)

COC(=O)C(Cc1cccc(C)n1)(c1ccccc1)c1ccccc1
EC50 [18]: > 92.5 µM (inactive)
EC50 (Mu-type opioid receptor): > 92.5 µM (inactive)
EC50 [19]: > 92.5 µM (inactive)
